Source: patent US20240400531A1, “HERBICIDAL MALONAMIDES CONTAINING A CONDENSED RING SYSTEM” (BASF SE, priority 2021, published 2024)

What was measured:
[1] = system: ECHCG; assay: greenhouse post-emergence herbicidal test; assay type: in vivo, Echinocloa crus-galli; conditions: post-emergence method, application rate 0.250 kg/ha, scale from 0 to 100
Source text: (§1) The culture containers used were plastic flowerpots containing loamy sand with approximately 3.0% of humus as the substrate. The seeds of the test plants were sown separately for each species.
(§2) For the post-emergence treatment, the test plants were first grown to a height of 3 to 15 cm, depending on the plant habit, and only then treated with the active ingredients which had been suspended or emulsified in water. For this purpose, the test plants were either sown directly and grown in the same containers, or they were first grown separately as seedlings and transplanted into the test containers a few days prior to treatment.
(§3) Depending on the species, the test plants were kept at 10-25° C. or 20-35° C., respectively.
(§4) The test period extended over 2 to 4 weeks. During this time, the test plants were tended, and their response to the individual treatments was evaluated.
(§5) Evaluation was carried out using a scale from 0 to 100. 100 means no emergence of the test plants, or complete destruction of at least the aerial moieties, and 0 means no damage, or normal course of growth. A good herbicidal activity is given at values of 65 to <90 and a very good herbicidal activity is given at values of 90 to 100.

[2] = system: APESV; assay: greenhouse pre-emergence herbicidal test; assay type: in vivo, Apera spica-venti; conditions: pre-emergence method, application rate 0.250 kg/ha, scale from 0 to 100
Source text: as §1
For the pre-emergence treatment, the active ingredients, which had been suspended or emulsified in water, were applied directly after sowing by means of finely distributing nozzles. The containers were irrigated gently to promote germination and growth and subsequently covered with transparent plastic hoods until the test plants had rooted. This cover caused uniform germination of the test plants, unless this had been impaired by the active ingredients.
as §3, §4, §5

[3] = system: AMARE; assay: greenhouse post-emergence herbicidal test; assay type: in vivo, Amaranthus retroflexus; conditions: post-emergence method, application rate 0.250 kg/ha, scale from 0 to 100
Source text: as §1, §2, §3, §4, §5

Compound: COC(C(=O)Nc1cccc2occc12)C(=O)N[C@H]1C=C[C@@H](C(=O)OC(C)C)C1 (stereo partly drawn) [I.6, isopropyl (1S,4R)-4-[[3-(benzofuran-4-ylamino)-2-methoxy-3-oxo-propanoyl]amino]cyclopent-2-ene-1-carboxylate]
- herbicidal activity against ECHCG [1]: very good (a very good herbicidal activity is given at values of 90 to 100)
- herbicidal activity against APESV [2]: very good (a very good herbicidal activity is given at values of 90 to 100)

Compound: COC(C(=O)Nc1cccc2ocnc12)C(=O)N[C@H]1C=C[C@@H](C(=O)OC(C)C)C1 (stereo partly drawn) [I.11, isopropyl (1S,4R)-4-[[3-(1,3-benzoxazol-4-ylamino)-2-methoxy-3-oxo-propanoyl]amino]cyclopent-2-ene-1-carboxylate]
- herbicidal activity against AMARE [3]: very good (a very good herbicidal activity is given at values of 90 to 100)
